In US20260242428A1, “POLYETHYLENIMINE-MODIFIED CRY PROTEINS AND THEIR USE” (priority 2024, published 2026):

What was measured:
[1] = test system: 3A-FDH/3A-LDH particles, unmodified (co-immobilized Cry3Aa-formate dehydrogenase and Cry3Aa-leucine dehydrogenase); assay: NADH binding capacity of 3A-FDH/3A-LDH particles without PEI; conditions: absorbance at 340 nm
[2] = biological target: T1, CadA-Cry1Ab fusion particles, unmodified (E. coli lysine decarboxylase CadA, NP_418555, fused to Cry1Ab) (Escherichia coli, UniProt P0A9H3); assay: PLP binding capacity of unmodified CadA-Cry1Ab particles; conditions: before PEI modification
T1 construct: made in house; host or cells: E. coli BL21(DE3)

[3] = biological target: T2, PEI-modified CadA-Cry1Ab fusion particles (E. coli lysine decarboxylase CadA, NP_418555, fused to Cry1Ab) (Escherichia coli, UniProt P0A9H3); assay: PLP binding capacity of PEI-CadA-Cry1Ab particles
T2 construct: made in house; host or cells: E. coli BL21(DE3)
Description: For binding analysis, PEI-CadA-Cry1Ab fusion particles (50 μg/mL) were incubated with increasing concentrations of PLP (0-2 mM) for 25 min under gentle rotation at room temperature. After incubation, the particles were centrifuged at 8000 rpm for 10 min, and the unbound PLP in the supernatant was quantified. A calibration curve, generated from PLP standards treated under identical conditions, was used to determine the amount of PLP bound to the particles. To stabilize the absorbance peak of PLP following Schiff base formation with the protein, 1 M HCl was added to the unbound PLP supernatants in a 1:1 (v/v) ratio. After a 5-minute incubation, the absorbance of the unbound PLP was measured at 294 nm using an Eppendorf Bio-Spectrometer (Eppendorf AG. Germany). The PLP concentration was determined using a standard curve generated for various PLP amounts treated with 1M HCL based on the Beer-Lambert law.

[4] = biological target: T3, PEI-modified Cry3Aa (3A-PEI) crystals; Cry3Aa, SEQ ID NO: 4 (Bacillus thuringiensis subsp. tenebrionis, UniProt P0A379, F640R/R158P); assay: Cofactor binding capacity of 3A-PEI crystals; conditions: 0.25 mM cofactor, 20 μg crystals, 10° C., 30 min
T3 construct: made in house; host or cells: Bacillus thuringiensis B7407G
Description: To compare the binding capacity of 3A-PEI crystals with Cry3Aa and Pos3Aa crystals, the same experiment was conducted as the control.
To evaluate whether 3A-PEI crystals could binding to other phosphorylated cofactors, PLP, NAD^+, NADP^+, NADPH, FADH2, CoA, Riboflavin, and TPP (each at a concentration of 0.25 mM) were incubated with 20 μg of 3A-PEI crystals for 30 min under slow rotation at 10° C. Subsequently, the crystals were centrifugated and the amount of bound cofactor within the crystals was quantified.

Compound | NADH retained [1] | PLP binding capacity [2] | PLP binding capacity ([3]; PLP 0-2 mM, 25 min, room temperature) | PLP binding capacity enhancement by PEI modification ([3]; vs unmodified CadA-Cry1Ab) | binding affinity (binding capacity of cofactor) [4]
NC(=O)C1=CN([C@@H]2O[C@H](COP(=O)(O)OP(=O)(O)OC[C@H]3O[C@@H](n4cnc5c(N)ncnc54)[C@H](O)[C@@H]3O)[C@@H](O)[C@H]2O)C=CC1 [NADH, nicotinamide adenine dinucleotide] | ~ 4.2±0.3 μmol NADH per g | – | – | – | –
Cc1ncc(COP(=O)(O)O)c(C=O)c1O [PLP, Pyridoxal 5′-phosphate] | – | ~ 100 μmol/g | ~ 1300 μmol/g | 13 fold | 650±2 μmol/g of support
Cc1ncc(C[n+]2csc(CCOP(=O)(O)OP(=O)(O)O)c2C)c(N)n1 [TPP] | – | – | – | – | 160±1 μmol/g of support
